Measurements from paper doi:10.1101/208439v1 (biorxiv, 2017).
Like-named read-outs stand apart in the source and are kept apart here.

Experiments:
PRMT7 = PRMT7 (Homo sapiens, UniProt Q9NVM4); experiment: biochemical
GLP = biological target: T1, GLP (Homo sapiens, UniProt Q9H9B1); experiment: biochemical
T1 construct: gene EHMT1
T1 sequence (Q9H9B1 1-1298): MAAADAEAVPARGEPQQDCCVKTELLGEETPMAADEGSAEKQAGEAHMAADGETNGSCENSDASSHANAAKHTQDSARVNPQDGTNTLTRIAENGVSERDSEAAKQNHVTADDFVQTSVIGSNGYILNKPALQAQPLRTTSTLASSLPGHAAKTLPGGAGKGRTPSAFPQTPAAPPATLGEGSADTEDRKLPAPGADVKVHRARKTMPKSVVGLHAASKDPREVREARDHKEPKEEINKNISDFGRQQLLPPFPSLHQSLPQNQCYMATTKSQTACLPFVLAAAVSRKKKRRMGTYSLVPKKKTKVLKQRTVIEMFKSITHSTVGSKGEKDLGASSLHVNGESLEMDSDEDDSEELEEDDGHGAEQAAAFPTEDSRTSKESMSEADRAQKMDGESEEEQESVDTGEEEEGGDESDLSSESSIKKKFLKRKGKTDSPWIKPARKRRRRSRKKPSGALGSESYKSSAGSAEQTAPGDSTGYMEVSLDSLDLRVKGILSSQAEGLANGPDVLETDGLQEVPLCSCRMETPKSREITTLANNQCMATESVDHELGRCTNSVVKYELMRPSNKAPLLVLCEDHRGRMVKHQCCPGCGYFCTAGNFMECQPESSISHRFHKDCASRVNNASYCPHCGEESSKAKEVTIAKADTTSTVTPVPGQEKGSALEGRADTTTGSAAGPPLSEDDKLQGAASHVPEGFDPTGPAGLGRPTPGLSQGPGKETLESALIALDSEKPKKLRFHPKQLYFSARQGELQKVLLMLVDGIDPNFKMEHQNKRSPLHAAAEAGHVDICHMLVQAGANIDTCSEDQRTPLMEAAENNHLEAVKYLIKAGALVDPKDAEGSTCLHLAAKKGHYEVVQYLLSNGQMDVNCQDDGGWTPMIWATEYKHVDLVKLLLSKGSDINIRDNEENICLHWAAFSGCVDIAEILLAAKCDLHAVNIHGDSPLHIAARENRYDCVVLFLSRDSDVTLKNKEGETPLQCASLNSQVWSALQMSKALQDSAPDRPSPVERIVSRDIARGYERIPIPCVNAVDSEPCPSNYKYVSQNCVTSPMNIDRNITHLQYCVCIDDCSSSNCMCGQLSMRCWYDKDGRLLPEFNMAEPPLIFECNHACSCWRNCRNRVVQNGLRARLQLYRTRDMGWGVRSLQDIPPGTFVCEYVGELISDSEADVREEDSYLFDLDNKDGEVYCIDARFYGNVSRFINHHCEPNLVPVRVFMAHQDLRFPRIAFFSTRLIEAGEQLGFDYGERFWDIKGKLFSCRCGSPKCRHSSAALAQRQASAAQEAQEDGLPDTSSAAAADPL

ASH1L = ASH1L (Homo sapiens, UniProt Q9NR48); conditions: inhibitor; read-out: Control IC50 (µM), Chaetocin
NSD2 SET domain [1] = biological target: T2, NSD2 SET domain (Homo sapiens, UniProt O96028); experiment: biochemical; parameters: Surface plasmon resonance binding to NSD2 SET domain
T2 construct: SET domain, residues 934-1241, N-terminal His tag, E. coli
T2 sequence (O96028 934-1241): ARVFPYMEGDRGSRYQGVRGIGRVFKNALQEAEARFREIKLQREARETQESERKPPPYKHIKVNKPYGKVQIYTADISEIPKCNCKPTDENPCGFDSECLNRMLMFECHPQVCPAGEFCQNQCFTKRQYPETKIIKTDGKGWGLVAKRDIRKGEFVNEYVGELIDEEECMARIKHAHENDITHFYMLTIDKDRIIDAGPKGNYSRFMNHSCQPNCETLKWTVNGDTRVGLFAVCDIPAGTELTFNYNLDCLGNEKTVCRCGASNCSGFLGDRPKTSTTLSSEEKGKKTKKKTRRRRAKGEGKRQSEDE
Protocol: To support an on-target mechanism of action for the five inhibitors, surface plasmon resonance (SPR) was used to determine whether each inhibitor interacts with the catalytic SET domain of NSD2. […] Chaetocin bound the SET domain with an apparent dissociation constant of 20 nM. Additionally, the data indicated super-stoichiometric binding, which might be due to a binding ratio higher than 1:1 that is consistent with chaetocin’s two disulfide moieties forming adducts with the NSD2 protein, or compound aggregation (data not shown) ([56]).

NSD3 = biological target: T3, NSD3 (Homo sapiens, UniProt Q9BZ95); experiment: biochemical
T3 sequence (Q9BZ95 1021-1322): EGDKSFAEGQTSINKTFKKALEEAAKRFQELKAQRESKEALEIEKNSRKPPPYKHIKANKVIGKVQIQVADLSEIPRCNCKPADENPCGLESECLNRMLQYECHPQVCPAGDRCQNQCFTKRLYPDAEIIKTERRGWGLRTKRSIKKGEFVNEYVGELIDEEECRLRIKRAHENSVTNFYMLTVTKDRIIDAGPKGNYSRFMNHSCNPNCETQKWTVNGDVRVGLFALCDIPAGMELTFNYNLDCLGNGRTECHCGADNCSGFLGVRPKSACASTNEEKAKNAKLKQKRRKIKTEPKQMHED

SET8 = biological target: T4, SET8 (Homo sapiens, UniProt Q9NQR1); experiment: biochemical
T4 construct: gene KMT5A
T4 sequence (Q9NQR1 1-393): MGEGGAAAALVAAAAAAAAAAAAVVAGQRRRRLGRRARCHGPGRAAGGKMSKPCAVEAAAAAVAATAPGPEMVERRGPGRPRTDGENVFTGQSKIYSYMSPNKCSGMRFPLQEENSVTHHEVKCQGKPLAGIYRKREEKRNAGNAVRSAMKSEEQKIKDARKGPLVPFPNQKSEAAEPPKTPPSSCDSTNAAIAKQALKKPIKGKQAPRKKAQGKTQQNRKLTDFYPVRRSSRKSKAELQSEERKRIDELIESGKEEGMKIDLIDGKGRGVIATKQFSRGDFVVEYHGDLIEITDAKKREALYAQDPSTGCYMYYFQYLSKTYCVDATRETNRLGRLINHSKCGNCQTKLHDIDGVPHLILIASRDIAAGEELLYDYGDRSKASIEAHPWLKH

DNMT3b = biological target: T5, DNMT3b (Homo sapiens, UniProt Q9UBC3); experiment: HotSpot [3H]SAM filter-binding methyltransferase assay; assay type: biochemical
T5 construct: residues 2-853, N-terminal GST fusion, insect cell/baculovirus

NSD1 = biological target: T6, NSD1 (Homo sapiens, UniProt Q96L73); experiment: as above; assay type: biochemical
T6 construct: residues 1538-2696, N-terminal His tag, insect cell/baculovirus
T6 sequence (Q96L73 1538-2696): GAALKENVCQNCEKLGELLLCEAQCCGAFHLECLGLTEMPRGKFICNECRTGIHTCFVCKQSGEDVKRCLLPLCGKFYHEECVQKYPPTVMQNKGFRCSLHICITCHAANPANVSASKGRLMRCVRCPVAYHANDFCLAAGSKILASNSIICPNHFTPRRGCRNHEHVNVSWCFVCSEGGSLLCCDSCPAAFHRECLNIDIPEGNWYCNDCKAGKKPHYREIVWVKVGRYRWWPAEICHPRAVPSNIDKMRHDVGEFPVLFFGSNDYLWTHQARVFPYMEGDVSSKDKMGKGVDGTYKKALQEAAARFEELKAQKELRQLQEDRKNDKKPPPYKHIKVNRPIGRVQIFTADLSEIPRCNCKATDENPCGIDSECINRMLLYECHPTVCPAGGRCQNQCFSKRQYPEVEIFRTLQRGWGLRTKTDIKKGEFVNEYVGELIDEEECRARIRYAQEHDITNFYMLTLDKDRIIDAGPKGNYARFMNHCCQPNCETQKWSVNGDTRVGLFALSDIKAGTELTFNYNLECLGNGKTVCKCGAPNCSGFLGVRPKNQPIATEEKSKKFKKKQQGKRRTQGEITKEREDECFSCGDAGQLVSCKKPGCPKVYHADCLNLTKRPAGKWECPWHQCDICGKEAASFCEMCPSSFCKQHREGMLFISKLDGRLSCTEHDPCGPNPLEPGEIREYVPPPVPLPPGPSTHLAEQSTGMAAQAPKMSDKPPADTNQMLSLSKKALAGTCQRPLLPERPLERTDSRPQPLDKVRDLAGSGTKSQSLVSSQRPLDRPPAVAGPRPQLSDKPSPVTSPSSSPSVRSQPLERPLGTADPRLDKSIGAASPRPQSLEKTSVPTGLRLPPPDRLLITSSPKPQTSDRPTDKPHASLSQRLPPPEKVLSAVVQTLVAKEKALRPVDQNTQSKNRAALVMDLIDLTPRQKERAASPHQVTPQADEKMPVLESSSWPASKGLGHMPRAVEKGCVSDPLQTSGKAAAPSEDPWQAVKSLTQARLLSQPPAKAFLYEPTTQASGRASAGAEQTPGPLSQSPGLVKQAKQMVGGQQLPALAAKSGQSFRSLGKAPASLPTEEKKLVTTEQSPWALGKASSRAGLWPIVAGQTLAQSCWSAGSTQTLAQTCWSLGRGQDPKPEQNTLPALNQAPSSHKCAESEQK

NSD2 SET domain [2] = biological target: T2, NSD2 SET domain; experiment: SPR Biacore 8K, single-cycle kinetics, […] model; assay type: binding
[3] = apparent, super-stoichiometric binding, binder

Chain of PRMT7 (Q9NVM4 whole entry): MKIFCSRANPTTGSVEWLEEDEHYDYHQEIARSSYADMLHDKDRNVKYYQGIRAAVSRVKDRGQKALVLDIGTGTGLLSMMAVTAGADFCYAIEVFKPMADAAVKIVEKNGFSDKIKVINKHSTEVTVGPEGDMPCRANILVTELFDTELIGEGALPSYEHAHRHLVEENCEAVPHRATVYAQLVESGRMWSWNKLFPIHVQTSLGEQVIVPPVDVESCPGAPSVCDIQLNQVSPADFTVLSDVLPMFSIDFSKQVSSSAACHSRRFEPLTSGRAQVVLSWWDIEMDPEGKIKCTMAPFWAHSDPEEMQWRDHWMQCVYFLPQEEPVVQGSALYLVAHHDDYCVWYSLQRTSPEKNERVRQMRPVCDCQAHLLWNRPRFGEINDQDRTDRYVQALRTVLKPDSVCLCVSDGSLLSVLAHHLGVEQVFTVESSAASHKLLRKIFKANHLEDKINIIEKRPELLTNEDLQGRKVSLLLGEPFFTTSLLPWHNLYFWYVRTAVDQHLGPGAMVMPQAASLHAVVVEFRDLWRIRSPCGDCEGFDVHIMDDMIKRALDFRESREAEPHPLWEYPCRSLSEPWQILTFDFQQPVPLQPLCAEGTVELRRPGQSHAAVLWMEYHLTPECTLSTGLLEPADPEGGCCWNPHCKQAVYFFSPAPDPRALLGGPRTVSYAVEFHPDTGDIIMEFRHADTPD

## CN1C(=O)[C@@]23C[C@]4([C@]56C[C@@]78SS[C@@](CO)(C(=O)N7[C@H]5Nc5ccccc56)N(C)C8=O)c5ccccc5N[C@@H]4N2C(=O)[C@]1(CO)SS3 [Chaetocin]
PRMT7
  IC50: 156000 nM
GLP
  IC50: 77000 nM
ASH1L
  IC50: 0.1 µM
NSD2 SET domain [1]; apparent, super-stoichiometric binding
  Kd: 20 nM
NSD2 SET domain [1]; [3]
  koff: 4.59e-05 s⁻¹
  kon: 2210 M⁻¹ s⁻¹
NSD3
  IC50: 90 nM

## Cc1ccc(NC2=CC(=O)c3sc(C)nc3C2=O)cc1 [Ryuvidine]
SET8
  IC50: 950 nM

## Nc1ncnc2c1ncn2[C@@H]1O[C@H](CSCC[C@H](N)C(=O)O)[C@@H](O)[C@H]1O [SAH, reference compound]
DNMT3b
  IC50: 65 nM
NSD1
  IC50: 9700 nM

## C[S+](CC[C@H](N)C(=O)O)C[C@H]1O[C@@H](n2cnc3c(N)ncnc32)[C@H](O)[C@@H]1O (stereo partly shown) [SAM]
NSD2 SET domain [2]
  Kd: 4200 nM
NSD2 SET domain [1]; read-out: koff
  koff: 0.017 s⁻¹
NSD2 SET domain [1]; read-out: kon
  kon: 4060 M⁻¹ s⁻¹
